Columns and labels:
[1] = test system: Brazilian crabgrass; assay: Test E preemergence; assay type: in vivo, Digitaria horizontalis; details: for Crabgrass, Brazil plant response rating: scale 0 to 100 (0 no effect, 100 complete control); for Plant response rating, Crabgrass, Brazil: scale 0 to 100, 0 no effect, 100 complete control
Outline: (§1)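 Test chemicals formulated in a non-phytotoxic solvent mixture containing a surfactant were applied preemergence to seeds in silt loam soil or postemergence to plants at the 1- to 4-leaf stage in potting mix. After 14 to 21 days in a greenhouse, injury was visually rated against controls on a 0-100 scale (0 = no effect, 100 = complete control).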

[2] = test system: velvetleaf; assay: Test E preemergence; assay type: in vivo, Abutilon theophrasti; details: for Velvetleaf plant response rating: scale 0 to 100 (0 no effect, 100 complete control); for Plant response rating, Velvetleaf: scale 0 to 100, 0 no effect, 100 complete control
Outline: as §1

[3] = test system: johnsongrass; assay: Test E preemergence; assay type: in vivo, Sorghum halepense; details: for Johnsongrass plant response rating: scale 0 to 100 (0 no effect, 100 complete control); for Plant response rating, Johnsongrass: scale 0 to 100, 0 no effect, 100 complete control
Outline: as §1

[4] = test system: wild poinsettia; assay: Test E preemergence; assay type: in vivo, Euphorbia heterophylla; details: for Poinsettia, Wild plant response rating: scale 0 to 100 (0 no effect, 100 complete control); for Plant response rating, Poinsettia, Wild: scale 0 to 100, 0 no effect, 100 complete control
Outline: as §1

[5] = test system: nightshade; assay: Test E preemergence; assay type: in vivo, Solanum ptycanthum; details: for Plant response rating, Nightshade: scale 0 to 100, 0 no effect, 100 complete control
Outline: as §1

[6] = test system: Italian ryegrass; assay: Test A postemergence; assay type: in vivo, Lolium multiflorum; details: 0 to 100 scale where 0 is no effect and 100 is complete control
Outline: (§2)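 Scoring: eye-based comparison with untreated controls, 0 for no effect through 100 for complete control, at about day 10. Treatments: directed soil spray preemergence; foliar spray postemergence on 2–10 cm plants at the one- to two-leaf stage. Medium: loam soil with sand.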

[7] = test system: arrowleaf sida; assay: Test E preemergence; assay type: in vivo, Sida rhombifolia; details: for Plant response rating, Arrowleaf Sida: scale 0 to 100, 0 no effect, 100 complete control
Outline: as §1

[8] = test system: dayflower; assay: Test E preemergence; assay type: in vivo, Commelina virginica; details: for Dayflower, VA plant response rating: scale 0 to 100 (0 no effect, 100 complete control); for Plant response rating, Dayflower, VA: scale 0 to 100, 0 no effect, 100 complete control
Outline: as §1

[9] = test system: field bindweed; assay: Test E preemergence; assay type: in vivo, Convolvulus arvensis; details: for Field Bindweed plant response rating: scale 0 to 100 (0 no effect, 100 complete control); for Plant response rating, Field Bindweed: scale 0 to 100, 0 no effect, 100 complete control
Outline: as §1

[10] = test system: sedge, umbrella; assay: Test C flooded paddy test; assay type: in vivo, Cyperus difformis; details: Flood, scale 0 to 100 (0 no effect, 100 complete control), 13 to 15 days
Outline: (§3)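 Under a constant 3 cm flood, test compounds went directly into the paddy water. Following 13 to 15 days of greenhouse growth, treated species and controls were compared by eye.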

[11] = test system: galium; assay: Test A postemergence; assay type: in vivo, Galium aparine; details: 0 to 100 scale where 0 is no effect and 100 is complete control
Outline: as §2

[12] = test system: ragweed; assay: Test A postemergence; assay type: in vivo, Ambrosia elatior; details: 0 to 100 scale where 0 is no effect and 100 is complete control
Outline: as §2

[13] = test system: hairy beggarticks; assay: Test E preemergence; assay type: in vivo, Bidens pilosa; details: for Plant response rating, Beggarticks: scale 0 to 100, 0 no effect, 100 complete control
Outline: as §1

[14] = test system: rice; assay: Test C flooded paddy test; assay type: in vivo, Oryza sativa; details: Flood, scale 0 to 100 (0 no effect, 100 complete control), 13 to 15 days
Outline: as §3

[15] = test system: kochia; assay: Test E preemergence; assay type: in vivo, Kochia scoparia; details: for Kochia plant response rating: scale 0 to 100 (0 no effect, 100 complete control); for Plant response rating, Kochia: scale 0 to 100, 0 no effect, 100 complete control
Outline: as §1

[16] = 31 g ai/ha, preemergence, scale 0 to 100 (0 no effect, 100 complete control)

SMILES: CCOc1cnn(-c2c(C#N)cccc2Oc2ncc(F)cn2)c1 [Compound 89]
- Crabgrass, Brazil plant response rating ([1]; 31 g ai/ha): 20
- Crabgrass, Brazil plant response rating ([1]; 62 g ai/ha): 90
- Plant response rating, Crabgrass, Brazil ([1]; 125 g ai/ha): 100
- Plant response rating, Crabgrass, Brazil ([1]; 250 g ai/ha): 100
- Velvetleaf plant response rating ([2]; 31 g ai/ha): 20
- Velvetleaf plant response rating ([2]; 62 g ai/ha): 65
- Plant response rating, Velvetleaf ([2]; 125 g ai/ha): 90
- Plant response rating, Velvetleaf ([2]; 250 g ai/ha): 100
- Johnsongrass plant response rating ([3]; 31 g ai/ha): 0
- Johnsongrass plant response rating ([3]; 62 g ai/ha): 10
- Plant response rating, Johnsongrass ([3]; 125 g ai/ha): 50
- Plant response rating, Johnsongrass ([3]; 250 g ai/ha): 100
- Poinsettia, Wild plant response rating ([4]; 31 g ai/ha): 20
- Poinsettia, Wild plant response rating ([4]; 62 g ai/ha): 40
- Plant response rating, Poinsettia, Wild ([4]; 125 g ai/ha): 70
- Plant response rating, Poinsettia, Wild ([4]; 250 g ai/ha): 85
- Nightshade plant response rating ([5]; 62 g ai/ha, scale 0 to 100 (0 no effect, 100 complete control)): 80
- Plant response rating, Nightshade ([5]; 125 g ai/ha): 100
- Plant response rating, Nightshade ([5]; 250 g ai/ha): 100
- Plant response rating, Ryegrass, Italian ([6]; 125 g ai/ha): 0
- Plant response rating, Ryegrass, Italian ([6]; 500 g ai/ha): 90
- Arrowleaf Sida plant response rating [7, 16]: 50
- Plant response rating, Arrowleaf Sida ([7]; Preemergence, 62 g ai/ha): 75
- Plant response rating, Arrowleaf Sida ([7]; preemergence, 125 g ai/ha): 100
- Plant response rating, Arrowleaf Sida ([7]; preemergence, 250 g ai/ha): 100
- Dayflower, VA plant response rating ([8]; 31 g ai/ha): 0
- Dayflower, VA plant response rating ([8]; 62 g ai/ha): 60
- Plant response rating, Dayflower, VA ([8]; 125 g ai/ha): 80
- Plant response rating, Dayflower, VA ([8]; 250 g ai/ha): 98
- Field Bindweed plant response rating ([9]; 31 g ai/ha): 35
- Field Bindweed plant response rating ([9]; 62 g ai/ha): 75
- Plant response rating, Field Bindweed ([9]; 125 g ai/ha): 95
- Plant response rating, Field Bindweed ([9]; 250 g ai/ha): 90
- Plant response rating, Sedge, Umbrella ([10]; 62 g ai/ha): 0
- Plant response rating, Sedge, Umbrella ([10]; 125 g ai/ha): 50
- Plant response rating, Sedge, Umbrella ([10]; 250 g ai/ha): 70
- Plant response rating, Galium ([11]; 125 g ai/ha): 90
- Plant response rating, Galium ([11]; 500 g ai/ha): 90
- Plant response rating, Ragweed ([12]; 125 g ai/ha): 30
- Plant response rating, Ragweed ([12]; 500 g ai/ha): 90
- Beggarticks plant response rating [13, 16]: 35
- Plant response rating, Beggarticks ([13]; Preemergence, 62 g ai/ha): 60
- Plant response rating, Beggarticks ([13]; preemergence, 125 g ai/ha): 80
- Plant response rating, Beggarticks ([13]; preemergence, 250 g ai/ha): 95
- Plant response rating, Rice ([14]; 62 g ai/ha): 0
- Plant response rating, Rice ([14]; 125 g ai/ha): 0
- Plant response rating, Rice ([14]; 250 g ai/ha): 0
- Kochia plant response rating ([15]; 31 g ai/ha): 60
- Kochia plant response rating ([15]; 62 g ai/ha): 75
- Plant response rating, Kochia ([15]; 125 g ai/ha): 100
- Plant response rating, Kochia ([15]; 250 g ai/ha): 100

Source: US9695155B2, “Herbicidal substituted pyrimidinyloxy benzene compounds” (E. I. DU PONT DE NEMOURS AND COMPANY, priority 2013, dated 2017)
